# Experimental data taken from US20090170898A1, “Sulphonamide Derivatives as Modulators of the Glucocorticoid Receptor” (priority 2006, published 2009).
# pIC50: −log10 of the molar value.
# Molecular target: T1, recombinant human GR (Homo sapiens, UniProt P04150)
# T1 construct: purchased Panvera/Invitrogen P2812 (kit P2893)
# T1 sequence (P04150 1-777): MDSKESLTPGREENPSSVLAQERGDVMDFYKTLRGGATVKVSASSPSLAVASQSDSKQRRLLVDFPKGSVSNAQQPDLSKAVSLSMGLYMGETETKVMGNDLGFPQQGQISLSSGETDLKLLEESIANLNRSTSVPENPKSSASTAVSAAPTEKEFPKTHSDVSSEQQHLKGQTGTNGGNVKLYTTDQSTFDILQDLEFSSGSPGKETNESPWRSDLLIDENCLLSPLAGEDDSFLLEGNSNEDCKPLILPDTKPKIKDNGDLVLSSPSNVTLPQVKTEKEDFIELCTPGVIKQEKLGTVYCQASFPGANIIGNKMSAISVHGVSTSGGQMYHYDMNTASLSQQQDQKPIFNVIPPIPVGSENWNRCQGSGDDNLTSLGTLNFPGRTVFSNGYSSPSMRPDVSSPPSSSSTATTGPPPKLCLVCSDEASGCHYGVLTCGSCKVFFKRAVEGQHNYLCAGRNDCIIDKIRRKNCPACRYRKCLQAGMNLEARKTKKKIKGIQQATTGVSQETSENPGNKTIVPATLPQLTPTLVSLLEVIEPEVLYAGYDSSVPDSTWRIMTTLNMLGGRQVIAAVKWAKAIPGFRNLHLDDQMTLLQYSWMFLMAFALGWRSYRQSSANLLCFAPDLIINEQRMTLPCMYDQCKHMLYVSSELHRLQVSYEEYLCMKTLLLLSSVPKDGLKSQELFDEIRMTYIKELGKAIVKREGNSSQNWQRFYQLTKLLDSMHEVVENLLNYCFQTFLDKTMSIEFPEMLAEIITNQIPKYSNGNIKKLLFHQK
# Test: Human Glucocorticoid Receptor (GR) fluorescence polarization binding assay (GRhuFL_FP_v2)
# Conditions: GS Red tracer, 2 hours at room temperature, 100% control 10 μM Dexamethasone, read-out: GRhuFL_FP_v2 (GR-binders) IC50
# Protocol: Human Glucocorticoid Receptor (GR) Assay
# The assay is based on a commercial kit from Panvera/Invitrogen (Part number P2893). The assay technology is fluorescence polarization. […] The GR and Stabilizing Peptide reagents are stored at −70° C. while the GS Red is stored at −20° C. Also included in the kit are 1M DTT (Panvera, Part number P2325, stored at −20° C.) and GR Screening buffer 10× (Panvera, Part number P2814, stored at −70° C. initially but once thawed stored at room temperature). Avoid repeated freeze/thaws for all reagents. The GR Screening buffer 10× comprises 100 mM potassium phosphate, 200 mM sodium molybdate, 1 mM EDTA and 20% DMSO.
# 0% control was 100% DMSO and 100% control was 10 μM Dexamethasone. Background solution (8 μL; assay buffer 10×, Stabilizing Peptide, DTT and ice cold MQ water) was added to the background wells. GS Red solution (7 μL; assay buffer 10×, Stabilizing Peptide, DTT, GS Red and ice cold water) was added to all wells except background wells. GR solution (7 μL; assay buffer 10×, Stabilizing Peptide, DTT, GR and ice cold water) was added to all wells. The plate was sealed and incubated in a dark at room temperature for 2 hours.
row,Structure (SMILES),pIC50
1,"O=S(=O)(N[C@H]1CCN(c2cccc3ncccc23)C1)c1c(Cl)cc(Cl)cc1Cl [Example 2, 2,4,6-Trichloro-N-[(3S)-1-quinolin-5-ylpyrrolidin-3-yl]benzenesulfonamide]",7.77
2,"O=S(=O)(N[C@H]1CCN(c2cccc3c2cnn3-c2ccc(F)nc2)C1)c1c(Cl)cc(Cl)cc1Cl [Example 3, 2,4,6-Trichloro-N-[(3S)-1-[1-(6-fluoropyridin-3-yl)-1H-indazol-4-yl]pyrrolidin-3-yl]benzenesulfonamide]",7.72
3,"O=S(=O)(N[C@H]1CCN(c2cccc3c2cnn3-c2ccc(F)cc2)C1)c1c(Cl)cc(Cl)cc1Cl [Example 4, 2,4,6-Trichloro-N-{(3S)-1-[1-(4-fluorophenyl)-1H-indazol-4-yl]pyrrolidin-3-yl}benzenesulfonamide]",7.60
4,"Cc1cc(C)c(S(=O)(=O)N[C@H]2CCN(c3cccc4ncccc34)C2)c(C)c1 [Example 1, 2,4,6-Trimethyl-N-[(3S)-1-quinolin-5-ylpyrrolidin-3-yl]benzenesulfonamide]",7.32
5,"Cc1cc(Cl)cc(Cl)c1S(=O)(=O)N[C@H]1CCN(c2cccc3c2cnn3-c2ccc(F)nc2)C1 [Example 5, 2,4-Dichloro-N-{(3S)-1-[1-(6-fluoropyridin-3-yl)-1H-indazol-4-yl]pyrrolidin-3-yl}-6-methylbenzenesulfonamide]",7.60

# The remaining lines, values ahead:
row,pIC50,Structure (SMILES)
1,6.92,"Cc1nn(C2CCCC2)c(C)c1S(=O)(=O)N[C@H]1CCN(c2cccc3c2cnn3-c2ccc(F)cc2)C1 [Example 9, 1-Cyclopentyl-N-{(3S)-1-[1-(4-fluorophenyl)-1H-indazol-4-yl]pyrrolidin-3-Yl}-3,5-dimethyl-1H-pyrazole-4-sulfonamide]"
2,7.42,"Cc1cc(C)c(S(=O)(=O)N[C@H]2CCN(c3cccc4c3cnn4-c3ccc(F)nc3)C2)c(C)c1 [Example 7, N-{(3S)-1-[1-(6-Fluoropyridin-3-yl)-1H-indazol-4-yl]pyrrolidin-3-yl}-2,4,6-trimethylbenzenesulfonamide]"
3,7.59,"Cc1cc(Cl)cc(Cl)c1S(=O)(=O)N[C@H]1CCN(c2cccc3ncccc23)C1 [Example 6, 2,4-Dichloro-6-methyl-N-[(3S)-1-quinolin-5-ylpyrrolidin-3-yl]benzenesulfonamide]"
